Laboratory results as given in article PMC12128885, “Myricetin-bound crystal structure of the SARS-CoV-2 helicase NSP13 facilitates the discovery of novel natural inhibitors” (Acta Crystallographica Section D: Structural Biology, 2025).
“Also recorded” adds a separate entry of the source. Where two headings read alike, the source gives them in different places.

Tests used:
[1] = tested on: Wuhan-like SARS-CoV-2 strain; test: microbe, parasite or virus in culture; format: cell-based
main protease (NSP5) = settings: 2024, cited from earlier work
[2] = target: RNA-dependent RNA polymerase (NSP12); design: method as in Su et al., 2021; Pan et al., 2023; Kuzikov et al., 2024; settings: ref Su et al., 2021; Pan et al., 2023; Kuzikov et al., 2024; cited from earlier work
spike protein = settings: read-out: Kd, spike protein; ref Su et al., 2021; Pan et al., 2023; Kuzikov et al., 2024; cited from earlier work

O=C(/C=C/c1ccc(O)c(O)c1)O[C@@H]1C[C@](O)(C(=O)O)C[C@@H](O)[C@H]1O [Chlorogenic acid, (1S,3R,4R,5R)-3-[(E)-3-(3,4-Dihydroxyphenyl)prop-2-enoyl]oxy-1,4,5-trihydroxycyclohexane-1-carboxylic acid]
IC50, infection assay (percentage of infected cells) ([1]; Vero E6 cells, MOI 0.3, 48 h, compound 1 h before infection): no significant effect; also recorded: no significant inhibition

O=c1c(O)c(-c2cc(O)c(O)c(O)c2)oc2cc(O)cc(O)c12 [Myricetin, 3,5,7-Trihydroxy-2-(3,4,5-trihydroxyphenyl)chromen-4-one]
IC50 (main protease (NSP5); ref Su et al., 2021, Pan et al., 2023, Kuzikov et al., read-out: IC50, main protease (NSP5)): 630 nM
IC50 [2]: 860 nM
Kd (spike protein): 2670 nM

O=c1nc(NO)ccn1[C@@H]1O[C@H](CO)[C@@H](O)[C@H]1O [NHC, β-D-N4-hydroxycytidine, reference compound]
IC50 ([1]; Vero E6 cells, MOI 0.3, 48 h, compound 1 h before infection, read-out: IC50, infection assay (percentage of infected cells)): 745 nM

O=C(/C=C/c1ccc(O)c(O)c1)O[C@H](Cc1ccc(O)c(O)c1)C(=O)O [Rosmarinic acid, (2R)-3-(3,4-Dihydroxyphenyl)-2-[(E)-3-(3,4-dihydroxyphenyl)prop-2-enoyl]oxypropanoic acid]
IC50 ([1]; Severe acute respiratory syndrome coronavirus 2, Vero C1008, read-out: IC50, infection assay (percentage of infected cells)): 59300 nM
IC50 (main protease (NSP5); noncovalent binding to active site, ref Li et al., read-out: IC50, NSP5): 2180 nM
